The data set concerns rats with normal renal function. The experiment in a line: Effect of 2′-PP on rat survival, serum phosphate and serum calcium (Table 1 study). The data set is classed as in vivo. Particulars: for Serum calcium / Serum phosphate: seven days after beginning treatment. The protocol:
Ten rats with normal renal function were treated with varied amounts of [^3H]2′-PP by gavage for seven days. The 2′-PP was given once/day in a solution containing 270 mM sucrose and 10 mM Tris-Cl pH 7.4. Blood was withdrawn 1, 4, and 7 days from the start of the treatment and analyzed for serum phosphate and serum calcium, with the results shown in Table 1. A second, one-week trial was performed adding 2′-PP to the drinking water. Blood was withdrawn at 1, 4 and 7 days and assayed for calcium and phosphate. Dietary phosphorus was increased from 0.9% to 5% for one week, and the experiment repeated at the elevated dietary phosphorus with 2′-PP added to the drinking water for an additional two weeks. The amount of radioactivity in the urine and stool as examined. After two weeks, the animals were sacrificed, and the kidney and liver were examined for radioactivity.
Serum calcium levels (2.1 mM±0.18 mM) remained unchanged (7% fluctuation compared to 3% error in duplicate determinations) on both the normal and high phosphate diets irrespective of 2′-PP concentration. […] Serum phosphate was 2.5±0.2 mM prior to administration of 2′-PP (n=12). […] Rats on the high phosphate diet required higher 2′-PP concentrations to achieve the same results, however, similar decreases in serum phosphate were seen. […] At 10 μM 2′-PP, rats on the high phosphorus diet had serum phosphate levels below that seen in untreated rats on the normal phosphate diet.
The values given are measured seven days after beginning treatment with the indicated 2′-PP concentration. Results are from duplicate rats and assayed in triplicate.

The mark [1] stands for this setting: High Phosphate Diet, [2′-PP] 1 μM.
The mark [2] stands for this setting: High Phosphate Diet, [2′-PP] 2 μM.
The mark [3] stands for this setting: High Phosphate Diet, [2′-PP] 5 μM.
The mark [4] stands for this setting: High Phosphate Diet, [2′-PP] 10 μM.
[5] abbreviates: High Phosphate Diet, [2′-PP] 25 μM.
The mark [6] stands for this setting: Normal Phosphate Diet, [2′-PP] 1 μM.
Setting [7] is: Normal Phosphate Diet, [2′-PP] 2 μM.
[8] abbreviates: Normal Phosphate Diet, [2′-PP] 5 μM.
Where [9] appears, read: Normal Phosphate Diet, [2′-PP] 10 μM.
The mark [10] stands for this setting: Normal Phosphate Diet, [2′-PP] 25 μM.
Where [11] appears, read: four weeks of treatment with 2′-PP.

Experimental findings from patent US6355823B1 (Board of Regents, The University of Texas System, priority 1999, dated 2002) are described below.

Values joined by “and” are separate entries in the source; they are usually repeats but may differ in a detail not shown here. Equal entries are not always repeated.

For `O=C(CCc1ccc(O)cc1)c1c(O)cc(O)cc1OP(=O)(O)O`, the Serum calcium under setting [1] is 2.1 ± 0.1 mM; the Serum calcium under setting [2] is on record as 2.1 ± 0.1 mM; the Serum calcium under setting [3] came out at 2.1 ± 0.1 mM; the Serum calcium under setting [4] is 2.1 ± 0.1 mM; the Serum calcium under setting [5] is recorded as 2.0 ± 0.1 mM; the Serum calcium under setting [6] amounted to 2.1 ± 0.08 mM. In addition, the Serum calcium amounted to 2.1 ± 0.1 mM under setting [7], 2.1 ± 0.05 mM under setting [8], 2.0 ± 0.1 mM under setting [9] and 2.1 ± 0.1 mM under setting [10]. The Serum phosphate is, setting by setting: under setting [1], 4.4 ± 0.2 mM; under setting [2], 3.3 ± 0.2 mM; under setting [3], 2.6 ± 0.1 mM; under setting [4], 2.0 ± 0.04 mM; under setting [5], 1.8 ± 0.08 mM; under setting [6], 2.5 ± 0.1 mM. The Serum phosphate is 2.2 mM and 2.2 ± 0.1 mM under setting [7]; 2.0 ± 0.07 mM under setting [8]; 1.8 ± 0.1 mM under setting [9]; 1.4 mM and 1.4 ± 0.1 mM under setting [10]. For the same compound, the change in weight result under setting [11] is reported as “nor did they suffer any measurable change in weight”. The rat survival result under setting [11] is “none of the rats died”. For the same compound, the “Serum calcium levels (remained unchanged)” value (normal and high phosphate diets, irrespective of 2′-PP concentration) is 2.1 mM.
